Assay results as given in US10864273B2, “Thiobase compounds for photodynamic therapy” (CASE WESTERN RESERVE UNIVERSITY, priority 2015, dated 2020).
“Also recorded” adds a separate entry of the source.

How the values were obtained:
[1] = Singlet oxygen quantum yield by phosphorescence at 1270 nm, thiouracil series; type: physicochemical
Method: Solutions of 4tUra, 2,4dtUra, and the singlet oxygen standard (phenalenone; ΦΔ=0.98) were prepared in acetonitrile, each with an absorbance of 0.3 at 355 nm in a 1×1 cm quartz cuvette. The solutions were purged with oxygen for 30 min, followed by the determination of quantum yields from back-toback measurements of the singlet oxygen phosphorescence intensity at 1270 nm. The O2-saturated solutions were excited at 355 nm (Spectra Physics GCR-150-30: 7 ns pulse width) and the phosphorescence at 1270 nm was detected with a NIR sensitive photomultiplier tube (H10330A-45, Hamamatsu).
The singlet oxygen (^1O2) quantum yields of 4tUra and 2,4dtUra were measured by monitoring the characteristic phosphorescence of ^1O2 at 1270 nm with nanosecond time resolution.

[2] = system: adenosine 5′-monophosphate (5′-AMP); assay: Photoreactivity with adenosine 5′-monophosphate upon 365 nm irradiation in N2-saturated buffer
Method: Aqueous phosphate-buffered saline solutions, pH 7.4, containing either 4tUra or 2,4dtUra were prepared with and without 5′-AMP and loaded into 1×1 cm septum-top quartz cuvettes. The concentrations of the thiouracil derivatives and 5′-AMP were […], respectively. These concentrations were chosen in order to favor the bimolecular photoreaction between the thiouracil derivative and 50-AMP, while simultaneously maintaining the absorbance of the solutions within the linear dynamic range limit of the UV-visible spectrophotometer used. All solutions were purged with ultrapure nitrogen for 30 min and kept under constant nitrogen flow throughout the irradiation period. An optical parametric amplifier (TOPAS, Quantronix/Light Conversion) pumped by our Libra laser system (described above) was used for monochromatic (±1 nm) irradiation of the samples. […] Absorbance changes in the thiouracil solutions, with and without 5′-AMP, were monitored periodically using UV-visible spectroscopy (Cary 100 Bio) during irradiation at 365 nm for up to 90 min and while stored in the dark for up to three and a half days.
In order to scrutinize the light-induced reactivity of these sensitizers toward biomolecules, aqueous phosphate-buffered saline solutions of either 4tUra or 2,4dtUra were prepared in the presence of the RNA monomer adenosine 5′-monophosphate (5′-AMP) at a 1:5 molar ratio. […] The experimental conditions were chosen in order to facilitate the extraction of relative photoreaction rates from the changes in the steady-state absorption spectra with irradiation time. […]

[3] = Steady-state molar absorptivity spectra, thiouracil series; type: physicochemical; details: 380 to 400 nm; based on molar absorptivity spectra
Method: Steady-state absorption spectra were measured using a Cary 100 Bio spectrometer. All absorption spectra were background corrected by subtracting the absorption of the neat solvent. Molar absorptivity coefficients were determined from the absorption spectra of serial dilutions of stock solutions with known concentrations.
An important property in the characterization of the photosensitizing potential of the thiouracil series is the determination of their ground-state molar absorptivity spectra. […] The maximum of the lowest-energy absorption band is shifted considerably further to the red (60 nm, 6734 cm^−1) upon sulfur substitution of the oxygen atom at the C4 position compared to when the substitution is made at the C2 position. […] In fact, based on the molar absorptivity spectra, the absorption efficiency of 2,4dtUra at nearvisible wavelengths (380 to 400 nm) is about 27-fold greater than that of 4tUra (see ESI† for details). The ability of these thiouracil derivatives to absorb longer wavelengths of light than uracil facilitates their selective excitation over the canonical DNA and RNA nucleobases. This photophysical property is essential for their prospective use in in vitro and in vivo photosensitizing applications.

[4] = Estimated photosensitization depth into tissue from molar absorptivity cutoff and penetration depth of light
Text: FIG. 13 illustrates a plot showing molar absorptivity spectra of 4tUra and 2,4dtUra overlaid with the function of the wavelength-dependent penetration depth of light into unpigmented tissue. The ε cutoff is defined by the molar absorptivity of 4tUra at 365 nm; the excitation wavelength typically used in its photosensitization applications.
Importantly, many of the current applications employing 4tUra and other UVA photosensitizers (e.g. psoralen derivatives) use radiation at 365 nm as the excitation source. The use of longer UVA wavelengths reduces direct excitation of other biomolecules, thereby increasing photosensitization efficiency and minimizing unwanted side reactions. However, the requirement of using relatively high concentrations of the sensitizer and/or long irradiation times are two major drawbacks in the current use of 4tUra in photocrosslinking studies as well as in PUVA (psoralen+UVA) photochemotherapies. […] More importantly, 2,4dtUra enables the use of lower-energy excitation wavelengths, as long as 395 nm (see FIG. 13), considering a molar absorptivity cutoff criterion equal to that currently used for 4tUra (see ESI† for a more thorough justification of this cutoff criterion). In other words, the use of 2,4dtUra enables excitation at 395 nm while maintaining the same absorption efficiency and photoreactivity as that of 4tUra at 365 nm. […]

[5] = cited from earlier work
[6] = Femtosecond to microsecond transient absorption spectroscopy of the thiouracil series (intersystem crossing, triplet yield, triplet decay, triplet-triplet extinction)
Text: Briefly, 800 nm, 100 fs fundamental pulses were generated with a Ti-Sapphire regenerative amplifier laser system (Libra-HE, Coherent, Inc.: 4.0 W, 1 kHz). The fundamental beam was used to produce pump wavelengths of 320, 335, and 350 nm via an optical parametric amplifier (TOPAS, Quantronix/Light Conversion). Unwanted wavelengths were removed from the pump beam using a reflective wavelength filter and a Glan-Taylor polarizer. A fraction of the remaining fundamental beam was focused into a continuously moving CaF2 plate (2 mm thick) to generate broadband white light probe pulses (320-700 nm). The intensity of the excitation beam was attenuated to 1 mJ per pulse at the sample position. The polarization of the pump beam was randomized before being focused into the sample to overlap with the white light continuum probe at a 3:1 beam diameter ratio. Pump-probe experiments were collected using a Helios spectrometer (Ultrafast Systems, LLC) and a home-made data acquisition software (LabView, National Instruments, Inc.).
Solutions of the 2tUra, 4tUra, and 2,4dtUra derivatives were prepared in aqueous phosphate-buffered saline at pH 7.4. […] Solutions were investigated in 2 mm optical path length quartz cells and the irradiated volume was continuously refreshed by stirring with a Teflon-coated magnetic stir bar. Contributions to the transient data from any putative photoproduct formation were prevented by replacing the solution with fresh stock solution every 5 scans, or before 6% sample degradation (as monitored by a decrease in the steady-state absorbance of the lowest-energy absorption band). The UVA excitation wavelength used was varied depending on the absorption spectrum of the specific thiouracil derivative investigated. For 2tUra, an excitation wavelength of 320 nm was used, whereas 2,4dtUra was excited at 335 and 350 nm, and 4tUra was excited at all three of these UVA wavelengths.
Decay of the triplet state of 4tUra and 2,4dtUra to the ground state was monitored using the same excitation and detection setups but probing with an electronically triggered broadband white light source (Eos, Ultrafast Systems, LLC) that has been conveniently integrated into the Helios spectrometer. This probe source has a spectral window from B375 to 800 nm, a time resolution of about 400 ps, and a temporal window of up to 120 ms. […] Data were collected with the solutions under a constant nitrogen flow, and exciting at 350 nm with 3 mJ per pulse for 10 min, corresponding to less than 5% degradation.
For each data set, between 50 and 100 traces were selected across the entire range of probe wavelengths and globally analyzed in Igor Pro 6.32A (WaveMetrics, Inc.). […] 83 The uncertainties reported for the triplet population lifetimes are twice the standard deviation from the average fitting of at least three independent datasets (i.e., recorded on three different days). Triplet-triplet absorption spectra were extracted from the global fitting analysis.

Sc1ccnc(S)n1 [2,4dtUra, 2,4-dithiouracil]
ΦΔ singlet oxygen quantum yield ([1]; O2-saturated acetonitrile, 355 nm excitation, phenalenone standard): 0.49±0.02 | 1O2 yield relative to uracil ([1]; excited to lowest-energy absorption band): 3.3 fold | 1O2 yield ([1]; following UVA excitation): ca. 50% | photoreaction rate with 5′-AMP relative to 4tUra ([2]; 365 nm, same concentrations of reactants): approximately three times faster; also recorded: threefold greater; also recorded: threefold higher | photoreaction rate ([2]; with 5′-AMP, 1:5 molar ratio (24 and 120 mM), 365 nm irradiation, N2-saturated aqueous buffer pH 7.4): (1.2±0.2)×10^−9 M s^−1 | absorption efficiency at near-visible wavelengths relative to 4tUra [3]: about 27 fold | longest excitation wavelength at molar absorptivity cutoff equal to that of 4tUra at 365 nm [4]: ≤ 395 nm | pKa [5]: 7.4 | increase in rate of intersystem crossing going from 2tUra [6]: 1.6 fold | τISC intersystem crossing lifetime ([6]; aqueous phosphate-buffered saline solution, pH 7.4): 220±40 fs | κT triplet-state decay rate ([6]; aqueous phosphate-buffered saline solution, pH 7.4, 24 mM solutions, nitrogen-purged, 350 nm excitation): 4.3 ± 0.9 10^6 s^−1 | intersystem crossing lifetime ([6]; aqueous phosphate-buffered saline, pH 5.4): 210±50 fs | triplet-triplet extinction coefficient ([6]; at 600 nm, singlet depletion method): 2500 ± 600 M⁻¹ cm⁻¹
